Laboratory results taken from US20240051946A1, “TARGETED PROTEIN DEGRADATION OF PARP14 FOR USE IN THERAPY” (Ribon Therapeutics, Inc., priority 2022, published 2024).
Structures can show the parent of a compound that is named as a salt.

Target: T1, PARP14 (Homo sapiens, UniProt Q460N5)
T1 construct: engineered to contain a HiBiT tag on both alleles of the PARP14 gene; endogenous in cells; host or cells: Jurkat cells stably expressing LgBiT (Promega), with CRISPR/Cas9 knock-in of HiBiT at the PARP14 locus
Assay: HiBiT assay for the degradation of PARP14 (HiBiT tagged PARP14 in LgBiT expressing Jurkat cells)
Type: cell-based
Conditions: Assay B, 37° C. for 2 or 24 hours, luminescence, read-out: DC50
Experimental: Jurkat cells stably transfected with LgBiT (Promega) were engineered to contain a HiBiT tag on both alleles of the PARP14 gene (Genbank Accession Number: NM_017554) via CRISPR/Cas9 editing. The HiBiT tag is an 11 amino acid tag created by Promega that associates with LgBiT protein to form the NanoLuc® tag on the C-terminus of PARP14. Clones were isolated and confirmed for the HiBiT tag via Sanger sequencing.
Degradation of PARP14 protein was assessed by measuring the luminescence of the HiBiT tag associating with the LgBiT protein as a proxy for the PARP14 protein. Jurkat cells were diluted to 250,000 cells per mL and then added to assay plate (Corning 3574) using a Multidrop (Thermo Fisher) to add 20 μL per well of the 384 well plate, resulting in 5,000 cells per well. 20 nL of a dose response curve diluted in DMSO of each test compound was added to the cell plate using a Mosquito (TTP Labtech) and the plate was incubated at 37° C. for 2 or 24 hours. Assay plate was brought to room temperature then 5 μL per well of Live Cell Substrate (Promega) was added to the plate. Luminescence was measured on an Envision (Perkin Elmer).
The average DMSO was calculated from 32 wells containing 0.1% DMSO only in columns 12 and 24 of the assay plate. The % of DMSO values were calculated as described below: […]
The % of DMSO values were plotted as a function of compound concentration and the following 4-parameter fit was applied to derive the DC50 values:
where top, bottom, and Hill Coefficient are allowed to float. Y is the % of DMSO and X is the compound concentration.
DC50 data for the Example compounds is provided below in Table 2 (“+” is <0.03 μM; “++” is ≥0.03 μM).

T1 sequence (Q460N5 whole entry): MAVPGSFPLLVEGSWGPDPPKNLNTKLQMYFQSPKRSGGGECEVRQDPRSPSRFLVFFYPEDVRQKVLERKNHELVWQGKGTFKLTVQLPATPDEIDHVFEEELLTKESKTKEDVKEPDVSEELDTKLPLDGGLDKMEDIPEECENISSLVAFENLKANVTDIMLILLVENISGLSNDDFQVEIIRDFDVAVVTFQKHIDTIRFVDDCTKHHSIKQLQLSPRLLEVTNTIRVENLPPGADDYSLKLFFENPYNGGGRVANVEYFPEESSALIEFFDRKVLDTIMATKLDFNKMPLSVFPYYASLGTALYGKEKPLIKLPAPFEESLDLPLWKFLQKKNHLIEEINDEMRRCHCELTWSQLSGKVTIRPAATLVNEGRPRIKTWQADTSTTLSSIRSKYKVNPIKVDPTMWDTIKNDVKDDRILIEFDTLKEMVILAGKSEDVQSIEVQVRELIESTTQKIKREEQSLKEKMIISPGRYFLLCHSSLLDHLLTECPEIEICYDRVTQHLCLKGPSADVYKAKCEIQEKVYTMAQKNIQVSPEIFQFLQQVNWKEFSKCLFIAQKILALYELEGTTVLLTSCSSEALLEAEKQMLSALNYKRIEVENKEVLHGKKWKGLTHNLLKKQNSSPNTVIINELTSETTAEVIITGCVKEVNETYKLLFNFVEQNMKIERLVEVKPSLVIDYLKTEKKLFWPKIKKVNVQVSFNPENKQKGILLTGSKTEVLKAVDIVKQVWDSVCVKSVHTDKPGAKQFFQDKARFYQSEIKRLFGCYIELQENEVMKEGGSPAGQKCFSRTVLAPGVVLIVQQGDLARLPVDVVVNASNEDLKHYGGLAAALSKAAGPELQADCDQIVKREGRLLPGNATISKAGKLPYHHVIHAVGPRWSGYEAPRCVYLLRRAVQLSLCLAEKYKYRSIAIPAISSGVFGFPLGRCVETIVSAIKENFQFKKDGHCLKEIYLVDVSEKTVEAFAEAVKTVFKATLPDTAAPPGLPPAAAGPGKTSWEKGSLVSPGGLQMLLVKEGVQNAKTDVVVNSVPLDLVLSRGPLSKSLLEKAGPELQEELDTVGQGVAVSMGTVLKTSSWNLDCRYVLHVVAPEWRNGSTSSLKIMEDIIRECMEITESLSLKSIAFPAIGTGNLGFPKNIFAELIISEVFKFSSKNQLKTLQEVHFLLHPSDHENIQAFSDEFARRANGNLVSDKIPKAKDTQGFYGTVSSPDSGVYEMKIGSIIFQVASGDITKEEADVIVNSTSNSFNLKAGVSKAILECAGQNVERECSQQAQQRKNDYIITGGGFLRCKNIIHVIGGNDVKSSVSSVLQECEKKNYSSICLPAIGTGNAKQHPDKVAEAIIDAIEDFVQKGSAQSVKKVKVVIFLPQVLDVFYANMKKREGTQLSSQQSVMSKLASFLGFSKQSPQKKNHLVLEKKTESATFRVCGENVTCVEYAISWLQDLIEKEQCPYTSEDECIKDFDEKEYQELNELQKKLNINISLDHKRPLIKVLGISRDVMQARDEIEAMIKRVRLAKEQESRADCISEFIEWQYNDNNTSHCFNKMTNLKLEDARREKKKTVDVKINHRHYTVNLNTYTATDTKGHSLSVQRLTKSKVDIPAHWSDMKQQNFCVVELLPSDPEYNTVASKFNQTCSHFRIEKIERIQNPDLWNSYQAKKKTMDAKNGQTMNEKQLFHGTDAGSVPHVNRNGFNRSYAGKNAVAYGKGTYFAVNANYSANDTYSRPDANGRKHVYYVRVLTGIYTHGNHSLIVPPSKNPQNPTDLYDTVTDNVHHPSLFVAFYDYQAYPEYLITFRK

Row | DC50 [nM] | SMILES
1 | < 30 | O=C1CCC(N2C(=O)c3cccc4c(N5CCN(CCN6CCC(SCc7nc8cc(OCC9CC9)cc(F)c8c(=O)[nH]7)CC6)CC5)ccc2c34)C(=O)N1 (stereo not drawn) [Example 49, 3-(6-(4-(2-(4-(((7-(cyclopropylmethoxy)-5-fluoro-4-oxo-3,4-dihydroquinazolin-2-yl)methyl)thio)piperidin-1-yl)ethyl)piperazin-1-yl)-2-oxobenzo[cd]indol-1(2H)-yl)piperidine-2,6-dione]
2 | < 30 | O=C1CCC(Nc2ccc(N3CCC(N4CCC(SCc5nc6cc(C#CC7CC7)cc(F)c6c(=O)[nH]5)CC4)CC3)c(F)c2)C(=O)N1 (stereo not drawn) [Example 67, 3-((4-(4-(((7-(cyclopropylethynyl)-5-fluoro-4-oxo-3,4-dihydroquinazolin-2-yl)methyl)thio)-[1,4′-bipiperidin]-1′-yl)-3-fluorophenyl)amino)piperidine-2,6-dione formate]
3 | < 30 | O=C1CCC(Nc2ccc(N3CCC(CN4CCC(SCc5nc6cc(OCC7CC7)cc(F)c6c(=O)[nH]5)CC4)CC3)c(F)c2)C(=O)N1 (stereo not drawn) [Example 56, 3-((4-(4-((4-(((7-(cyclopropylmethoxy)-5-fluoro-4-oxo-3,4-dihydroquinazolin-2-yl)methyl)thio)piperidin-1-yl)methyl)piperidin-1-yl)-3-fluorophenyl)amino)piperidine-2,6-dione formate]
4 | < 30 | O=C1CCC(Nc2ccc(N3CCN(CCN4CCC(SCc5nc6cc(OCC7CCOCC7)cc(F)c6c(=O)[nH]5)CC4)CC3)c(F)c2)C(=O)N1 (stereo not drawn) [Example 46, 3-((3-fluoro-4-(4-(2-(4-(((5-fluoro-4-oxo-7-((tetrahydro-2H-pyran-4-yl)methoxy)-3,4-dihydroquinazolin-2-yl)methyl)thio)piperidin-1-yl)ethyl)piperazin-1-yl)phenyl)amino)piperidine-2,6-dione]
5 | < 30 | O=C1CCC(Nc2ccc(N3CCC(N4CCC(SCc5nc6cc(OCC7CC7)cc(F)c6c(=O)[nH]5)CC4)CC3)c(F)c2)C(=O)N1 (stereo not drawn) [Example 54, 3-((4-(4-(((7-(cyclopropylmethoxy)-5-fluoro-4-oxo-3,4-dihydroquinazolin-2-yl)methyl)thio)-[1,4′-bipiperidin]-1′-yl)-3-fluorophenyl)amino)piperidine-2,6-dione formate]
6 | < 30 | O=C1CCC(Nc2ccc(N3CCN(CCN4CCC(OCc5nc6cc(OCC7CC7)cc(F)c6c(=O)[nH]5)CC4)CC3)c(F)c2)C(=O)N1 (stereo not drawn) [Example 45, 3-((4-(4-(2-(4-((7-(cyclopropylmethoxy)-5-fluoro-4-oxo-3,4-dihydroquinazolin-2-yl)methoxy)piperidin-1-yl)ethyl)piperazin-1-yl)-3-fluorophenyl)amino)piperidine-2,6-dione]
7 | < 30 | O=C1CCC(Nc2ccc(N3CCC(C4CCN(CCc5nc6cc(OCC7CC7)cc(F)c6c(=O)[nH]5)CC4)CC3)c(F)c2)C(=O)N1 (stereo not drawn) [Example 64, 3-((4-(1′-(2-(7-(cyclopropylmethoxy)-5-fluoro-4-oxo-3,4-dihydroquinazolin-2-yl)ethyl)-[4,4′-bipiperidin]-1-yl)-3-fluorophenyl)amino)piperidine-2,6-dione]

Further lines, the compound ahead of its results:

Row | SMILES | DC50 [nM]
8 | O=C1CCC(Nc2ccc(N3CC(N4CCC(SCc5nc6cc(OCC7CC7)cc(F)c6c(=O)[nH]5)CC4)C3)c(F)c2)C(=O)N1 (stereo not drawn) [Example 66, 3-((4-(3-(4-(((7-(cyclopropylmethoxy)-5-fluoro-4-oxo-3,4-dihydroquinazolin-2-yl)methyl)thio)piperidin-1-yl)azetidin-1-yl)-3-fluorophenyl)amino)piperidine-2,6-dione] | < 30
9 | O=C1CCN(c2ccc(N3CCC(N4CCC(SCc5nc6cc(OCC7CC7)cc(F)c6c(=O)[nH]5)CC4)CC3)c(F)c2)C(=O)N1 [Example 60, 1-(4-(4-(((7-(cyclopropylmethoxy)-5-fluoro-4-oxo-3,4-dihydroquinazolin-2-yl)methyl)thio)-[1,4′-bipiperidin]-1′-yl)-3-fluorophenyl)dihydropyrimidine-2,4(1H,3H)-dione] | < 30
10 | O=C1CCC(Nc2ccc(N3CCN(CCO[C@H]4CC[C@H](SCc5nc6cc(OCC7CC7)cc(F)c6c(=O)[nH]5)CC4)CC3)c(F)c2)C(=O)N1 (stereo partly drawn) [Example 55, 3-((4-(4-(2-(((1r,4r)-4-(((7-(cyclopropylmethoxy)-5-fluoro-4-oxo-3,4-dihydroquinazolin-2-yl)methyl)thio)cyclohexyl)oxy)ethyl)piperazin-1-yl)-3-fluorophenyl)amino)piperidine-2,6-dione] | < 30
11 | O=C1CCC(Nc2ccc(N3CCC(N4CC(N5CCC(SCc6nc7cc(OCC8CCOCC8)cc(F)c7c(=O)[nH]6)CC5)C4)CC3)c(F)c2)C(=O)N1 (stereo not drawn) [Example 51, 3-((3-fluoro-4-(4-(3-(4-(((5-fluoro-4-oxo-7-((tetrahydro-2H-pyran-4-yl)methoxy)-3,4-dihydroquinazolin-2-yl)methyl)thio)piperidin-1-yl)azetidin-1-yl)piperidin-1-yl)phenyl)amino)piperidine-2,6-dione formate] | < 30
12 | O=C1CCN(c2cncc3c(N4CCC(N5CCC(SCc6nc7cc(OCC8CC8)cc(F)c7c(=O)[nH]6)CC5)CC4)cccc23)C(=O)N1 [Example 62, 1-(8-(4-(((7-(cyclopropylmethoxy)-5-fluoro-4-oxo-3,4-dihydroquinazolin-2-yl)methyl)thio)-[1,4′-bipiperidin]-1′-yl)isoquinolin-4-yl)dihydropyrimidine-2,4(1H,3H)-dione] | < 30
13 | O=C1CCC(Nc2ccc(N3CCC(N4CCC(CCc5nc6cc(OCC7CC7)cc(F)c6c(=O)[nH]5)CC4)CC3)c(F)c2)C(=O)N1 (stereo not drawn) [Example 65, 3-((4-(4-(2-(7-(cyclopropylmethoxy)-5-fluoro-4-oxo-3,4-dihydroquinazolin-2-yl)ethyl)-[1,4′-bipiperidin]-1′-yl)-3-fluorophenyl)amino)piperidine-2,6-dione] | < 30
14 | O=C1CCC(Nc2ccc(N3CCC(N4CCC(SCc5nc6cc(OCC7CC7)cc(F)c6c(=O)[nH]5)CC4)CC3)c(C(F)(F)F)c2)C(=O)N1 (stereo not drawn) [Example 57, 3-((4-(4-(((7-(cyclopropylmethoxy)-5-fluoro-4-oxo-3,4-dihydroquinazolin-2-yl)methyl)thio)-[1,4′-bipiperidin]-1′-yl)-3-(trifluoromethyl)phenyl)amino)piperidine-2,6-dione] | < 30
15 | O=C1CCC(Nc2ccc(N3CCC(N4CCN(CCc5nc6cc(OCC7CC7)cc(F)c6c(=O)[nH]5)CC4)CC3)c(F)c2)C(=O)N1 (stereo not drawn) [Example 63, 3-((4-(4-(4-(2-(7-(cyclopropylmethoxy)-5-fluoro-4-oxo-3,4-dihydroquinazolin-2-yl)ethyl)piperazin-1-yl)piperidin-1-yl)-3-fluorophenyl)amino)piperidine-2,6-dione formic salt] | < 30
16 | O=C1CCC(Nc2ccc(N3CCC(N4CC(N5CCC(SCc6nc7cc(OCC8CC8)cc(F)c7c(=O)[nH]6)CC5)C4)CC3)c(F)c2)C(=O)N1 (stereo not drawn) [Example 48, 3-((4-(4-(3-(4-(((7-(cyclopropylmethoxy)-5-fluoro-4-oxo-3,4-dihydroquinazolin-2-yl)methyl)thio)piperidin-1-yl)azetidin-1-yl)piperidin-1-yl)-3-fluorophenyl)amino)piperidine-2,6-dione] | < 30
17 | O=C1CCC(Nc2ccc(N3CCN(CCN4CCC(SCc5nc6cc(OCC7CCOCC7)cc(F)c6c(=O)[nH]5)CC4)CC3)cc2)C(=O)N1 (stereo not drawn) [Example 43, 3-((4-(4-(2-(4-(((5-fluoro-4-oxo-7-((tetrahydro-2H-pyran-4-yl)methoxy)-3,4-dihydroquinazolin-2-yl)methyl)thio)piperidin-1-yl)ethyl)piperazin-1-yl)phenyl)amino)piperidine-2,6-dione] | < 30
18 | O=C1CCC(Nc2ccc(N3CCC(N4CCC(SCc5nc6cc(OCC7CCOCC7)cc(F)c6c(=O)[nH]5)CC4)CC3)c(F)c2)C(=O)N1 (stereo not drawn) [Example 52, 3-((3-fluoro-4-(4-(((5-fluoro-4-oxo-7-((tetrahydro-2H-pyran-4-yl)methoxy)-3,4-dihydroquinazolin-2-yl)methyl)thio)-[1,4′-bipiperidin]-1′-yl)phenyl)amino)piperidine-2,6-dione] | < 30
